Several values for one entry are separate records, joined by “and”; a condition that tells them apart may be missing. Equal entries are not always repeated.
Legend:
[1] = tested on: rat unilateral ureteral obstruction release model; assay: Rat unilateral ureteral obstruction release model: glomerular and tubulointerstitial lesions, Asc-1+ cells; assay type: in vivo, SD rat; conditions: for Improvement of glomerular lesion: Yes = lesioned glomeruli per 50 glomeruli reduced to less than or equal to half the control average; for Improvement of tubulointerstitial lesion: Yes = reduced to less than or equal to half the control average;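 on Tubulointerstitial lesion: atrophy of tubules associated with dilatation of tubules (score): ± very light + light ++ moderate +++ high change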;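 on Tubulointerstitial lesion: fibrosis of interstitial tissue (score): ± very light + light ++ moderate +++ high change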;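 on Tubulointerstitial lesion: thickness of basement membrane (score): ± very light + light ++ moderate +++ high change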
Text: An experimental model was produced in accordance with the method devised and established by Ishibashi (Michio Ishibasi et al., Japanese Journal of Nephrology 42: 248, 2000), using a 8 to 9-week-old male SD rat weighing about 280 g. […] On day 14 after obstruction, the obstruction was released, and the urinary tract was reconstructed using a cuff. That is, 14 days later, the ligated ureteral obstruction part was partially removed, and a 25 gauge polyethylene tube (made by Nippon Sherwood) as a cuff was inserted from the lower normal ureteral stump and placed in the lumen. Next, the cuff was placed also in the expanded upper ureter, and both parts were ligated for fixation with a 7-0 nylon suture to reconstruct the urinary tract. At the same time, the right kidney was removed. The weight was measured after obstruction release, and the blood was collected on days 2, 5, and 7 after release for serum creatinine determination. On day 7, the rat was sacrificed under anesthesia and the left obstruction release kidney was removed. The weight of the removed kidney was measured, and the kidney pathomorphological examination was performed.
The biological effects of the test compound were studied in vivo using the model obtained in the above procedure 1). The test compound in the form of bulk powder was dissolved in sterilized physiologic saline together with gum arabic, where the concentration of the gum arabic was adjusted to 5% and the concentration of the test compound was adjusted to 30 mg/ml. The amount of 30 mg/kg was subcutaneously administered every day. Daily administration was continued for 21 days during 14 days of obstruction and 7 days after obstruction release. For controlled comparison, the solvent of 5% gum arabic was administered alone.
On day 22 from the administration of the test compound, the rat was sacrificed under anesthesia, and the left obstruction release kidney was removed and neutral formalin fixed. The fixed renal tissue embedded in paraffin was sliced into 4-micrometer-thick pieces for examination.
The tissue section was observed under a microscope in order to count the number of glomeruli and the number of glomeruli having a lesion (expansion of a tubular pole associated with swollen Bowman's capsule epithelial cells or hypertrophy of a Bowman's capsule basal membrane) in the field of view, and the number of glomeruli having the lesion (referred to as “lesioned glomerulus”) per 50 glomeruli was calculated.
As for the effectiveness to improve of glomerular lesions, when the number of lesioned glomeruli per 50 glomeruli was reduced to less than or equal to half the average number of those of the control group, it was determined as improved.
An affinity-purified anti-rat Asc-1 polyclonal antibody (rabbit) was prepared as follows: that is, in order to prepare an anti-Asc-1 peptide polyclonal antibody (rabbit), an oligopeptide (PSPLPITDKPLKTQC (SEQ. ID NO: 4)) corresponding to amino acid residues of 517-530 of Asc-1 was synthesized (see J Biol Chem (2000); 275: 9690-9698), keyhole limpet hemocyanine was bound to the C-terminal cysteine as an adjuvant, and […] was immunized therewith. The serum was collected on days 7 and 14 from the immunization. The serum was concentrated by means of an adsorption-dissociation operation using an affinity column to which an oligopeptide corresponding to amino acid residues of 517-530 of Asc-1 was bound in order to obtain an affinity-purified antibody having a protein content of 0.5 mg/ml. As for immunopathological examination, paraffin rat […] diluted with PBS to the optimal concentration was used.
The immune tissue staining was performed based on the protocol of Ventana HX system bench mark (Ventana Japan K.K., Tokyo) including the automated immunostaining device manufactured by Ventana Japan K.K. After deparaffinization, the tissue section was heat-treated at 100° C. for 1 hour. […]

[2] = tested on: glomerular lesions; renal tubulointerstitial lesions; conditions: International Publication WO 2004/024185 and 01/72730 pamphlets; cited from earlier work
4F2hc [3] = assay: 4F2hc on large-cell fraction of LPS-stimulated THP-1, peak value by FACScan; assay type: cell-based, human
Description: The same procedures as in Experimental Example 2 were taken except the following conditions: human leukemia culture cell line THP-1 was used instead of the human peripheral blood mononuclear cells; the final addition concentration of the test compound (6-2) was set to 100 nM, and the final addition concentration of the test compound (7-3) was set to 1000 nM; and fetal bovine serum was used instead of the human AB serum. The peak value of HAT expressed on the fraction of large-cells in human leukemia culture cell strain THP-1, compared with those not stimulated with LPS, was measured. As a control, the one with no test-compound addition was used, and the peak value of HAT was measured by FACScan using a commercially available cell fix/cell membrane infiltration kit (trade name: BD Cytofix/Cytopem™ Kit, catalog No. 554714, BD Bioscience).

rBAT = assay: HAT heavy chain rBAT on large-monocyte fraction of LPS-stimulated human PBMC, peak value by FACScan; assay type: cell-based; conditions: human PBMC + LPS 80 μg/ml, 6-day culture; test compound 100 nM; solvent control 37
Description: (§1) In the same manner as in 1) to 5) of Experimental Example 1, to human peripheral blood mononuclear cells, the test compound (6-2) (final concentration: 10 nM) or the test compound (7-3) (final concentration: 100 nM) was added at the same time when LPS (final concentration: 80 μg/ml) was added, followed by 6-day culture. Further, in the same manner as above, using rabbit anti-human 4F2hc polyclonal antibodies (see Biol Pharm Bull 30:415-422, 2007) as a primary antibody, the peak value of HAT expressed on the fraction of large-macrophages (larger than monocyte macrophages) in human PBMC was measured by FACScan using a commercially available cell fix/cell membrane infiltration kit (trade name: BD Cytofix/Cytoperm™ Kit, catalog No. 554714, BD Biosciences).
(§2) As a control, the one with no test-compound addition was used, and as a rabbit anti-human rBAT (related to b^0,+-type amino acid transporter) polyclonal antibody, the one obtained by coupling a synthesized peptide composed of an amino-terminal of human rBAT (MAEDKSKRDSIEMSMKGC (SEQ ID NO: 2)) and a carboxyl-terminal of mouse b^0,+AT (BAT1) (CHLQMLEWPEKDPE (SEQ ID NO: 3)) to a carrier KLH (keyhole-limpet hemocyanin), and immunizing a rabbit with it.

FRP-1/CD98/4F2hc = assay: FACScan of FRP-1/CD98/4F2hc expression on macrophage fraction of LPS-stimulated human PBMC (monoclonal antibodies 4-5-1, 6-1-3, HBJ-127); assay type: cell-based
4F2hc [4] = assay: HAT heavy chain 4F2hc on large-monocyte fraction of LPS-stimulated human PBMC, peak value by FACScan (polyclonal antibody); assay type: cell-based
Description: as §1, §2

[5] = group average ± standard deviation
[6] = individual animal, 30 mg/kg s.c. daily for 21 days, 30 mg/kg
[7] = individual animal, points: ± 0.5, + 1, ++ 2, +++ 3
[8] = individual animal, sum of the three scores
[9] = human PBMC + LPS 80 μg/ml, 6-day culture, test compound 100 nM

SMILES	Glomerular lesion: number of lesioned glomeruli per 50 glomeruli, expansion of tubular pole associated with swollen Bowman's capsule epithelial cells [1, 5]	Glomerular lesion: number of lesioned glomeruli per 50 glomeruli, hypertrophy of Bowman's capsule basal membrane [1, 5]	Number of Asc-1+ cells per 50 glomeruli [1, 5]	Tubulointerstitial lesion: atrophy of tubules associated with dilatation of tubules (score) [1, 5]	Tubulointerstitial lesion: fibrosis of interstitial tissue (score) [1, 5]	Tubulointerstitial lesion: thickness of basement membrane (score) [1, 5]	Tubulointerstitial lesion: total score [1, 5]	Glomerular lesion: number of lesioned glomeruli per 50 glomeruli, expansion of tubular pole associated with swollen Bowman's capsule epithelial cells [1, 6]	Glomerular lesion: number of lesioned glomeruli per 50 glomeruli, hypertrophy of Bowman's capsule basal membrane [1, 6]	Number of Asc-1+ cells per 50 glomeruli [1, 6]	Improvement of glomerular lesion ([1]; individual animal)	Improvement of tubulointerstitial lesion ([1]; individual animal)	Tubulointerstitial lesion: atrophy of tubules associated with dilatation of tubules (score) [1, 7]	Tubulointerstitial lesion: fibrosis of interstitial tissue (score) [1, 7]	Tubulointerstitial lesion: thickness of basement membrane (score) [1, 7]	Tubulointerstitial lesion: total score [1, 8]	known action on renal tubulointerstitial lesions [2]	further results
C[C@@H](OC[C@@]1(Oc2ccc(F)cc2)CCC(=O)O1)c1ccc2ccccc2c1 [(3-2)]	6 ± 3 per 50 glomeruli	6 ± 1 per 50 glomeruli	11.06 ± 3.51 per 50 glomeruli	2.6 ± 0.9	2.2 ± 0.4	2.2 ± 0.4	7.0 ± 1.2	10 per 50 glomeruli and 6 per 50 glomeruli (2×) and 5 per 50 glomeruli and 3 per 50 glomeruli	6 per 50 glomeruli and 5 per 50 glomeruli (2×) and 8 per 50 glomeruli and 7 per 50 glomeruli	9.48 per 50 glomeruli and 9.55 per 50 glomeruli and 14.91 per 50 glomeruli and 6.84 per 50 glomeruli and 14.52 per 50 glomeruli	Yes	No	3 (4×) and 1	2 (4×) and 3	2 (4×) and 3	7 (2×) and 8 (2×) and 5	–	known action on glomerular lesions [2]: selectively inhibit the glomerular lesions
C[C@@H](OC[C@]1(Oc2ccc(F)cc2)CCC(=O)O1)c1ccc2ccccc2c1 [(4-2)]	11 ± 6 per 50 glomeruli	18 ± 9 per 50 glomeruli	4.03 ± 3.06 per 50 glomeruli	1.0 ± 0	1.5 ± 0.6	0.9 ± 0.3	3.4 ± 0.5	16 per 50 glomeruli (2×) and 6 per 50 glomeruli and 7 per 50 glomeruli	29 per 50 glomeruli and 9 per 50 glomeruli and 20 per 50 glomeruli and 13 per 50 glomeruli	1.81 per 50 glomeruli and 7.39 per 50 glomeruli and 5.83 per 50 glomeruli and 1.10 per 50 glomeruli	No (2×) and Yes (2×)	No and Yes (3×)	1	2 (2×) and 1 (2×)	1 (3×) and 0.5	4.0 and 3.5 and 3.0 (2×)	selectively inhibit the renal tubulointerstitial lesions	–
O=C1OC(Cl)(C(=O)OCc2ccccc2)c2ccccc21 (stereo not shown) [Compound (7-3)]	5 ± 3 per 50 glomeruli	14 ± 5 per 50 glomeruli	0.90 ± 0.47 per 50 glomeruli	0.50 ± 0.4	0.5 ± 0	0.4 ± 0.3	1.4 ± 0.6	9 per 50 glomeruli and 1 per 50 glomeruli and 6 per 50 glomeruli and 4 per 50 glomeruli	20 per 50 glomeruli and 10 per 50 glomeruli and 16 per 50 glomeruli and 11 per 50 glomeruli	1.35 per 50 glomeruli and 0.47 per 50 glomeruli and 1.27 per 50 glomeruli and 0.53 per 50 glomeruli	No (2×) and Yes (2×)	–	0.5 (2×) and 0 and 1	0.5	0.5 (3×) and 0	1.5 (2×) and 0.5 and 2	selectively inhibit the renal tubulointerstitial lesions	Change in HAT expressed on large-cell fraction of THP-1 (peak value by FACScan), 4F2hc (4F2hc [3]; THP-1 + LPS 80 μg/ml, fetal bovine serum, test compound 1000 nM, solvent control 12): 11; amount of 4F2hc in the heavy chain of HAT (in words) (4F2hc [3]; THP-1 + LPS, summary of Table 3): did not make any change; amelioration / reduction of tubulointerstitial lesions, rats of the group ([1]; control group: one rat out of four): all of four rats; Asc-1 positive cells in the glomeruli (in words) ([1]; versus control group): only a small number; Change in HAT expressed on large-monocyte fraction of human PBMC (peak value by FACScan), rBAT (rBAT): 38; Migration of FRP-1/CD98/4F2hc expression of macrophage fraction by FACScan (migration rate %), monoclonal antibody 4-5-1 (FRP-1) (FRP-1/CD98/4F2hc; [9]): 2.6%; Migration of FRP-1/CD98/4F2hc expression of macrophage fraction by FACScan (migration rate %), monoclonal antibody 6-1-3 (FRP-1) (FRP-1/CD98/4F2hc; [9]): 2.0%; Migration of FRP-1/CD98/4F2hc expression of macrophage fraction by FACScan (migration rate %), monoclonal antibody HBJ-127 (CD98) (FRP-1/CD98/4F2hc; [9]): 5.4%; expression of FRP-1/CD98/4F2hc on macrophage fraction of human PBMC (in words) (FRP-1/CD98/4F2hc; stimulated and cultured with LPS, summary of Table 1): did not increase the expression; Change in HAT expressed on large-monocyte fraction of human PBMC (peak value by FACScan), 4F2hc (4F2hc [4]; human PBMC + LPS 80 μg/ml, 6-day culture, test compound 100 nM, solvent control 23): 20; amount of 4F2hc in the heavy chain of HAT (in words) (4F2hc [4]; human PBMC + LPS, summary of Table 2): did not show any effects
